Measured values: patent publication US8461305B2, “L-fucose α1→6 specific lectin” (J-Oil Mills, Inc., priority 2008, dated 2013)

Assay: frontal affinity chromatography (FAC), association constant to PA sugar chains without L-fucose
Assay type: binding
Conditions: for association constant Ka: 25 degrees C.
Description: The following section will describe a method of calculating an association constant by frontal affinity chromatography (FAC). This method is based on the following principle. […] Then, the elution front end (front) is observed immediately. When there is an affinity with lectin, the elution of the sugar chain is delayed.
The preparation of a lectin column used in the apparatus is performed in the method as described below. 1. Purified lectin is dissolved in 0.1 to 0.2M of NaHCO3 buffer solution (pH 8.3 to 8.5). 2. The lectin is immobilized, via a lectin primary amino group, a carrier such as NHS activated sepharose. 3. Then, the lectin is blocked by Tris buffer solution including primary amine or ethanolamine for example. 4. Lectin-sepharose is suspended in 10 mM Tris buffer, including 0.8% of NaCl (pH 7.4, TBS). Then, lectin immobilized resin is filled in a miniature column (φ2 mm×10 mm, 31.4 μl). 5. The miniature column in which the lectin immobilized resin is filled is protected by a holder and the lectin column is connected to an FAC automatic analysis apparatus (FAC-1, SHIMADZU CORPORATION).
Then, the elution of the PA sugar chain from the column is detected by a fluorescence detector (excitation wavelength/fluorescence wavelength: 310 nm/380 nm).
Based on the detection data, by using the elution front end (Vo) of the sugar chain (PA rhamnose) not interacting with lectin as a reference, the delay (V−Vo) of the elution front end (V) of a sugar chain interacting with lectin is calculated as an interaction strength. Then, based on the following FAC criteria expressions, the association constant (Ka) between the sugar chain and lectin is calculated based on V−Vo and Bt. If the interaction strength (V−Vo value) and the association constant are higher, a higher affinity is caused between lectin and an L-fucose α1→6 sugar chain.
[In the formula, A means substance used for the elution, Ao means the initial concentration of the substance A, B means a immobilized ligand, V means the elution volume, Vo means the elution front end volume of the substance not interacting with the immobilized ligand B at all, Bt means an effective ligand amount, Kd means a dissociation constant (an inverse of the association constant)].
Pyridylaminated (PA) sugar chains shown in FIG. 1 and FIG. 2 were used to frontal affinity chromatography (FAC) analysis. PA sugars were purchased from TAKARA BIO INC., SEIKAGAKU BIOBUSINESS CORPORATION, and Masuda Chemical Industries co., LTD. PA sugar were also obtained by pyridylaminating, by GlycoTAG®(TAKARA BIO INC.), an unlabeled sugar chain or a sugar chain obtained by subjecting a sugar chain to enzyme digestion for example.
Lectin was dissolved in 0.2 M NaHCO3 buffer solution (pH 8.3) including 0.5 M NaCl and coupled to the NHS-activated sepharose (GE Healthcare Bioscience) by following the manufacturer's instructions. Then, lectin immobilized sepharose was suspended in 10 mM Tris buffer (pH 7.4, TBS) including […] and the resultant matter was filled in a miniature column (φ2 mm×10 mm, 31.4 μl).
Frontal affinity chromatography was performed using FAC automatic analysis apparatus (FAC-1, SHIMADZU CORPORATION). In particular, the above-prepared lectin column was inserted to a stainless steel holder and the holder was connected to FAC-1 apparatus. The flow rate and the column temperature were maintained at 0.125 ml/min and 25 degrees C., respectively. After the miniature column was equilibrated by the TBS, an excessive volume (0.5 ml to 4 ml) of a PA sugar chain (3.75 nM or 7.5 nM) was continuously inputted to the column using an automatic sampling apparatus.
The fluorescent strength of the eluate of the PA sugar (excitation wavelength of 310 nm and fluorescence wavelength of 380 nm) was monitored to measure the interaction strength [a difference of the front end eluate to the standard oligosaccharide (PA rhamnose): V−V0]. […]

Substance: Pholiota terrestris lectin [PTL, novel L-fucose α1→6 specific lectin purified from the mushroom Pholiota terrestris]
- binding to sugar chain not having L-fucose (FAC): not bound
- association constant Ka (Sugar chain No. 001): <1000 M⁻¹
- association constant Ka (Sugar chain No. 002): <1000 M⁻¹
- association constant Ka (Sugar chain No. 003): <1000 M⁻¹
- association constant Ka (Sugar chain No. 004): <1000 M⁻¹
- association constant Ka (Sugar chain No. 005): <1000 M⁻¹
- association constant Ka (Sugar chain No. 006): <1000 M⁻¹
- association constant Ka (Sugar chain No. 007): <1000 M⁻¹
- association constant Ka (Sugar chain No. 008): <1000 M⁻¹
- association constant Ka (Sugar chain No. 009): <1000 M⁻¹
- association constant Ka (Sugar chain No. 010): <1000 M⁻¹
- association constant Ka (Sugar chain No. 011): <1000 M⁻¹
- association constant Ka (Sugar chain No. 012): <1000 M⁻¹
- association constant Ka (Sugar chain No. 013): <1000 M⁻¹
- association constant Ka (Sugar chain No. 014): <1000 M⁻¹
- association constant Ka (Sugar chain No. 101): <1000 M⁻¹
- association constant Ka (Sugar chain No. 103): <1000 M⁻¹
- association constant Ka (Sugar chain No. 104): <1000 M⁻¹
- association constant Ka (Sugar chain No. 105): <1000 M⁻¹
- association constant Ka (Sugar chain No. 107): <1000 M⁻¹
- association constant Ka (Sugar chain No. 108): <1000 M⁻¹
- association constant Ka (Sugar chain No. 301): <1000 M⁻¹
- association constant Ka (Sugar chain No. 304): <1000 M⁻¹
- association constant Ka (Sugar chain No. 305): <1000 M⁻¹
- association constant Ka (Sugar chain No. 307): <1000 M⁻¹
- association constant Ka (Sugar chain No. 308): <1000 M⁻¹
- association constant Ka (Sugar chain No. 313): <1000 M⁻¹
- association constant Ka (Sugar chain No. 314): <1000 M⁻¹
- association constant Ka (Sugar chain No. 323): <1000 M⁻¹
- association constant Ka (Sugar chain No. 501): <1000 M⁻¹
- association constant Ka (Sugar chain No. 502): <1000 M⁻¹
- association constant Ka (Sugar chain No. 503): <1000 M⁻¹
- association constant Ka (Sugar chain No. 504): <1000 M⁻¹
- association constant Ka (Sugar chain No. 701): <1000 M⁻¹
- association constant Ka (Sugar chain No. 702): <1000 M⁻¹
- association constant Ka (Sugar chain No. 703): <1000 M⁻¹
- association constant Ka (Sugar chain No. 704): <1000 M⁻¹
- association constant Ka (Sugar chain No. 705): <1000 M⁻¹
- association constant Ka (Sugar chain No. 706): <1000 M⁻¹
- association constant Ka (Sugar chain No. 707): <1000 M⁻¹
- association constant Ka (Sugar chain No. 708): <1000 M⁻¹
- association constant Ka (Sugar chain No. 709): <1000 M⁻¹
- association constant Ka (Sugar chain No. 710): <1000 M⁻¹
- association constant Ka (Sugar chain No. 711): <1000 M⁻¹
- association constant Ka (Sugar chain No. 712): <1000 M⁻¹
- association constant Ka (Sugar chain No. 713): <1000 M⁻¹
- association constant Ka (Sugar chain No. 715): <1000 M⁻¹
- association constant Ka (Sugar chain No. 716): <1000 M⁻¹
- association constant Ka (Sugar chain No. 717): <1000 M⁻¹
- association constant Ka (Sugar chain No. 724): <1000 M⁻¹
- association constant Ka (Sugar chain No. 725): <1000 M⁻¹
- association constant Ka (Sugar chain No. 728 (as listed in Table 7)): <1000 M⁻¹
- association constant Ka (Sugar chain No. 732): <1000 M⁻¹
- association constant Ka (Sugar chain No. 733): <1000 M⁻¹
- association constant Ka (Sugar chain No. 734): <1000 M⁻¹
- association constant Ka (Sugar chain No. 735): <1000 M⁻¹
- association constant Ka (Sugar chain No. 736): <1000 M⁻¹
- association constant Ka (Sugar chain No. 737): <1000 M⁻¹
- association constant Ka (Sugar chain No. 738): <1000 M⁻¹
- association constant Ka (Sugar chain No. 901): <1000 M⁻¹
- association constant Ka (Sugar chain No. 902): <1000 M⁻¹
- association constant Ka (Sugar chain No. 903): <1000 M⁻¹
- association constant Ka (Sugar chain No. 905): <1000 M⁻¹
- association constant Ka (Sugar chain No. 906): <1000 M⁻¹
- association constant Ka (Sugar chain No. 907): <1000 M⁻¹
